The text below walks through data of ChEMBL document CHEMBL4270525, “SAR studies on truxillic acid mono esters as a new class of antinociceptive agents targeting fatty acid binding proteins” (Eur J Med Chem, 2018).

Data set [1] has as its target Fatty acid-binding protein 5 (Homo sapiens, UniProt Q01469). Kind of data set: Displacement of DAUDA from recombinant human N-terminal His-tagged FABP5 expressed in Escherichia coli BL21(DE3) after 20 mins by fluorescence assay.
Data set [2] addresses Fatty acid-binding protein, heart (Homo sapiens, UniProt P05413). Briefly: Displacement of DAUDA from recombinant human N-terminal His-tagged FABP3 expressed in Escherichia coli BL21(DE3) after 20 mins by fluorescence assay.
Data set [3] has as its target Fatty acid-binding protein, brain (Homo sapiens, UniProt O15540). Briefly: Displacement of ANS from recombinant human N-terminal His-tagged FABP7 expressed in Escherichia coli BL21(DE3) after 20 mins by fluorescence assay.
The nature of data set [4]: Colloidal aggregation of the compound at 20 uM by dynamic light scattering method. It is filed as physicochemical.
Data set [5] in a line: Half life in C57BL/6 mouse at 20 mg/kg, ip by LC-MS analysis. It is filed as ADME, organism-based. The following applies: in vivo.

Where only a bound is given, the exact number is not on record here.

Chain of Fatty acid-binding protein 5 (Q01469 whole entry): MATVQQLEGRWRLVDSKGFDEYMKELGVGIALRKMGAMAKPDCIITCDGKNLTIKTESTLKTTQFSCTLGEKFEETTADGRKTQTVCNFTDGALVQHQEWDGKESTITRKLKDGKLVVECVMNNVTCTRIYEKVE
Chain of Fatty acid-binding protein, brain (O15540 whole entry): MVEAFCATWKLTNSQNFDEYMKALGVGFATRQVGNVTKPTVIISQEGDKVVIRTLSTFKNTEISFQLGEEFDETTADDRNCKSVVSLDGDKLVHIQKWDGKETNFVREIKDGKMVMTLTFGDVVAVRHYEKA
Chain of Fatty acid-binding protein, heart (P05413 whole entry): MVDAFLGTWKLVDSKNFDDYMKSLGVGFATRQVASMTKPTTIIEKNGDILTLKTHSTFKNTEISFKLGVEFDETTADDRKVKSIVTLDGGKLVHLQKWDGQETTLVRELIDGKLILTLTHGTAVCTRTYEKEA

Turning to `COc1ccc(COC(=O)[C@H]2[C@H](c3ccccc3)[C@H](C(=O)OCc3ccc(OC)cc3)[C@H]2c2ccccc2)cc1`, the Ki in data set [1] (read-out: Ki), in data set [2] (read-out: Ki) and in data set [3] (read-out: Ki) was above 10 µM throughout.

Turning to `O=C(OCC1CCOCC1)[C@H]1[C@H](c2ccccc2)[C@H](C(=O)OCC2CCOCC2)[C@H]1c1ccccc1`, the Ki in data set [1] (read-out: Ki), in data set [2] (read-out: Ki) and in data set [3] (read-out: Ki) was above 10 µM throughout.

On to `O=C(O)[C@H]1[C@H](c2ccccc2)[C@H](C(=O)Oc2cccc3ccccc23)[C@H]1c1ccccc1`, for which, in data set [2] (read-out: Ki), the Ki came to 2.82 µM.

For the compound `O=C(O)[C@H]1[C@H](c2ccccc2[N+](=O)[O-])[C@H](C(=O)Oc2cccc3ccccc23)[C@H]1c1ccccc1[N+](=O)[O-]`, the Ki in data set [1] (read-out: Ki), in data set [2] (read-out: Ki) and in data set [3] (read-out: Ki) was above 10 µM in each case.

As to `O=C(OCc1ccc(F)cc1)[C@H]1[C@H](c2ccccc2)[C@H](C(=O)OCc2ccc(F)cc2)[C@H]1c1ccccc1`, the Ki in data set [1] (read-out: Ki), in data set [2] (read-out: Ki) and in data set [3] (read-out: Ki) was above 10 µM each time.

On to `O=C(O)[C@H]1[C@H](c2ccccc2[N+](=O)[O-])[C@H](C(=O)O[C@@H]2CCCC[C@H]2c2ccccc2)[C@H]1c1ccccc1[N+](=O)[O-]`, for which the Ki in data set [1] (read-out: Ki), in data set [2] (read-out: Ki) and in data set [3] (read-out: Ki) was above 10 µM throughout.

For `O=C(O)[C@H]1[C@H](c2ccc(O)cc2)[C@H](C(=O)Oc2cccc3ccccc23)[C@H]1c1ccc(O)cc1` (racemic), the inhibition constant (Ki) in data set [1] (read-out: Ki) is above 10 µM; in data set [2] (read-out: Ki), 2.3 µM.

Take `O=C(O)C1C(c2ccccc2)C(C(=O)Oc2cccc3ccccc23)C1c1ccccc1` (racemic): in data set [4], the Activity entry is “Not Active”. This compound also gave a half-life in data set [5] of 3 h. The inhibition constant (Ki) in data set [2] (read-out: Ki) amounted to 2.7 µM; in data set [3] (read-out: Ki), 0.45 µM.

Turning to `O=C(O)[C@H]1[C@H](c2ccccc2Cl)[C@H](C(=O)O[C@@H]2CCCC[C@H]2c2ccccc2)[C@H]1c1ccccc1Cl` (racemic), the Ki in data set [1] (read-out: Ki) is 1.7 µM; in data set [2] (read-out: Ki) it was above 10 µM; in data set [3] (read-out: Ki) it was above 10 µM.

For `O=C(O)[C@H]1[C@H](c2ccccc2)[C@H](C(=O)OC2CCCCC2)[C@H]1c1ccccc1`, the values for the Ki in data set [2] (read-out: Ki) and in data set [3] (read-out: Ki) were above 10 µM and 0.5 µM, respectively.

Turning to `O=C(O)[C@H]1[C@H](c2ccccc2)[C@H](C(=O)OCc2ccccc2)[C@H]1c1ccccc1`, the figures for the Ki in data set [1] (read-out: Ki) and in data set [2] (read-out: Ki) were 3.81 µM and above 10 µM, respectively.

With `O=C(O)[C@H]1[C@H](c2ccccc2)[C@@H](C(=O)Nc2nc(-c3ccc4c(c3)CCCC4)cs2)[C@H]1c1ccccc1`, the inhibition constant (Ki) in data set [1] (read-out: Ki), in data set [2] (read-out: Ki) and in data set [3] (read-out: Ki) was above 10 µM in each case.

Take `O=C(O)[C@H]1[C@H](c2ccccc2)[C@H](C(=O)O)[C@H]1c1ccccc1`: the Ki in data set [1] (read-out: Ki), in data set [2] (read-out: Ki) and in data set [3] (read-out: Ki) was above 10 µM each time.

As to `COc1ccc([C@H]2[C@H](C(=O)O)[C@H](c3ccc(OC)c(OC)c3)[C@H]2C(=O)O)cc1OC`, the Ki in data set [1] (read-out: Ki), in data set [2] (read-out: Ki) and in data set [3] (read-out: Ki) was above 10 µM throughout.

For `COc1cc([C@H]2[C@H](C(=O)O)[C@H](c3ccc(O)c(OC)c3)[C@H]2C(=O)O)ccc1O`, the Ki in data set [1] (read-out: Ki), in data set [2] (read-out: Ki) and in data set [3] (read-out: Ki) was above 10 µM in each case.

As to `O=C(O)[C@H]1[C@H](c2ccccc2)[C@H](C(=O)Nc2nc(-c3ccc4c(c3)CCCC4)cs2)[C@H]1c1ccccc1`, the Ki in data set [1] (read-out: Ki), in data set [2] (read-out: Ki) and in data set [3] (read-out: Ki) was above 10 µM in each case.

In the case of `O=C(O)[C@H]1[C@@H](c2ccccc2)[C@H](C(=O)Oc2cccc3ccccc23)[C@@H]1c1ccccc1`, in data set [2] (read-out: Ki), the Ki was found to be 3.26 µM.

As for `O=C(O)[C@H]1[C@H](c2ccccc2)[C@H](C(=O)O[C@@H]2CCCC[C@H]2c2ccccc2)[C@H]1c1ccccc1`, in data set [4], the Activity result is reported as “Not Active”.

`C#Cc1cccc(OC(=O)[C@H]2[C@@H](c3ccccc3)[C@H](C(=O)O)[C@@H]2c2ccccc2)c1` (racemic): the Ki in data set [1] (read-out: Ki) is 0.89 µM; in data set [2] (read-out: Ki), above 10 µM; in data set [3] (read-out: Ki), 0.78 µM.

As for `O=C(O)[C@H]1[C@H](c2ccccc2)[C@H](C(=O)Oc2ccccc2-c2ccccc2)[C@H]1c1ccccc1`, in data set [3] (read-out: Ki), the Ki worked out at 0.35 µM.

Consider `O=C(OCc1ccccc1)[C@H]1[C@H](c2ccccc2)[C@H](C(=O)OCc2ccccc2)[C@H]1c1ccccc1`, for which the Ki in data set [1] (read-out: Ki), in data set [2] (read-out: Ki) and in data set [3] (read-out: Ki) was above 10 µM in each case.

`COc1ccccc1[C@H]1[C@H](C(=O)O)[C@H](c2ccccc2OC)[C@H]1C(=O)Oc1cccc2ncccc12`: the Ki in data set [1] (read-out: Ki) was 3.93 µM; in data set [2] (read-out: Ki), above 10 µM; in data set [3] (read-out: Ki), above 10 µM.

For `O=C(O)[C@H]1[C@H](c2ccccc2Br)[C@H](C(=O)O[C@@H]2CCCC[C@H]2c2ccccc2)[C@H]1c1ccccc1Br`, the Ki in data set [2] (read-out: Ki) and in data set [3] (read-out: Ki) was above 10 µM each time.

In the case of `O=C(O)[C@H]1[C@H](c2c(Cl)cccc2Cl)[C@H](C(=O)O[C@@H]2CCCC[C@H]2c2ccccc2)[C@H]1c1c(Cl)cccc1Cl`, the results for the Ki in data set [1] (read-out: Ki) and in data set [2] (read-out: Ki) were 1.23 µM and above 10 µM, respectively.

For `COc1ccccc1[C@H]1[C@H](C(=O)O)[C@H](c2ccccc2OC)[C@H]1C(=O)O[C@@H]1CCCC[C@H]1c1ccccc1`, the Ki in data set [2] (read-out: Ki) and in data set [3] (read-out: Ki) was 0.4 µM each time.

As for `O=C(O)[C@H]1[C@H](c2ccccc2)[C@H](C(=O)Oc2cc(Cl)c(Cl)cc2Cl)[C@H]1c1ccccc1`, the Ki was 2.98 µM in data set [2] (read-out: Ki) and 0.54 µM in data set [3] (read-out: Ki).

With `O=C(O)[C@H]1[C@H](c2ccccc2)[C@H](C(=O)OCC(F)(F)F)[C@H]1c1ccccc1`, the Ki in data set [1] (read-out: Ki) and in data set [2] (read-out: Ki) was above 10 µM in each case.

Consider `O=C(Oc1cccc(-c2ccccc2)c1)[C@H]1[C@H](c2ccccc2)[C@H](C(=O)Oc2cccc(-c3ccccc3)c2)[C@H]1c1ccccc1`, for which the Ki result in data set [1], in data set [2] and in data set [3] was “Nd(Insoluble)” in each case.

As usually defined, the Ki is a measure of affinity in units of concentration, obtained from inhibition or displacement. One may read the half-life as the time in which the quantity being followed falls by half. A high value points to slow decline.
